Assay [1] has as its target T1, TYK2-JH2 (aa 575-869, in-house) protein (Homo sapiens, UniProt P29597).
T1 construct: TYK2-JH2 (aa 575-869, in-house) protein; made in house
Kind of assay: TYK2-JH2 biochemical assay (HTRF probe displacement). It is filed as binding. The conditions noted are these: Biochemical assay; read-out: TYK2-JH2 IC50. Summed up: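 HTRF probe-displacement format: compound dilutions (10 points, 5-fold, from 500 uM in DMSO at 500×) were combined with 0.2 nM TYK2-JH2 protein for 0.5 h at room temperature in HEPES pH 7.5 buffer with MgCl2, BSA, DTT and Brij-35. Percent inhibition came from the 615/665 nm fluorescence ratio, fitted to a four-parameter logistic for IC50.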

Assay [2] concerns JAK2, TYK2/p-STAT4 (Tyr693) activated by IL-12 in NK-92 cell line. As to the kind of experiment: IL-12-JAK2, TYK2/p-STAT4 (Tyr693) inhibition IC50 cellular assay. It is filed as cell-based. The conditions noted are these: for pIC50: NK92, Cellular assay, read-out: pSTAT4/IL-12 IC50; for Selectivity fold (TYK2/JAK2): Cellular assay, pSTAT5/GM-CSF IC50 vs pSTAT4/IL-12 IC50. The essentials:
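p-STAT4 (Tyr693) in lysates was measured by AlphaLISA SureFire Ultra after a 30 min IL-12 challenge (40 ng/ml final) at 37° C. Overnight-starved, IL-2-free NK-92 cells had been pretreated 1 h with compound at 10000 to 0.61 nM (4-fold, 8 points). IC50 values came from four-parameter logistic fitting.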

The subject of the next assay is pSTAT5/GM-CSF. As to the kind of experiment: pSTAT5/GM-CSF cellular assay (JAK2 selectivity). It is filed as cell-based. The conditions noted are these: for Selectivity fold (TYK2/JAK2): pSTAT5/GM-CSF IC50 over pSTAT4/IL-12 IC50.

pIC50: −log10 of the molar value.

T1 sequence (P29597 575-869): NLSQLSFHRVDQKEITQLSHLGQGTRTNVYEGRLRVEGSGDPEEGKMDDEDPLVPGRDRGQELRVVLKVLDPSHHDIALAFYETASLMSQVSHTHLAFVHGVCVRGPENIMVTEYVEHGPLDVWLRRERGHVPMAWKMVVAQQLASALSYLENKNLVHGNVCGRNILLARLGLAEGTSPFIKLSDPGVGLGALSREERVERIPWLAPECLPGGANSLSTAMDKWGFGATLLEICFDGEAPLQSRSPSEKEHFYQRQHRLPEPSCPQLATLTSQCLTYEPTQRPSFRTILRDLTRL

Consider `CC(=O)Nc1cc(Nc2cc(C(F)F)cc(S(C)(=O)=O)c2)c(-c2ccn(C)n2)cn1` [Example J32, N-(4-((3-(difluoromethyl)-5-(methylsulfonyl)phenyl)amino)-5-(1-methyl-1H-pyrazol-3-yl)pyridin-2-yl)acetamide], for which the figures for the pIC50 (in assay [1]; in assay [2]; in the assay on pSTAT5/GM-CSF) were 10.10, 8.06 and less than 5.00, respectively. Besides, the “Selectivity fold (TYK2/JAK2)” value in the assay on pSTAT5/GM-CSF is reported as more than 1137 fold.
With `CC(=O)Nc1cc(Nc2cc(C)cc(S(C)(=O)=O)c2)c(-c2ccn(C)n2)cn1` [Example J8, N-(5-(1-methyl-1H-pyrazol-3-yl)-4-((3-methyl-5-(methylsulfonyl)phenyl)amino)pyridin-2-yl)acetamide], the pIC50 was 10.14 in assay [1], 8.12 in assay [2] and less than 5.00 with pSTAT5/GM-CSF. In addition, the “Selectivity fold (TYK2/JAK2)” value with pSTAT5/GM-CSF is listed as more than 1303 fold.
For `CO[C@@H]1CCCN(c2cc(Nc3cc(NC(C)=O)ncc3-c3ccc4c(n3)OCC(C)(C)O4)nc(S(C)(=O)=O)c2)C1` [Example Q66, (R)-N-(5-(2,2-dimethyl-2,3-dihydro-[1,4]dioxino[2,3-b]pyridin-6-yl)-4-((4-(3-methoxypiperidin-1-yl)-6-(methylsulfonyl)pyridin-2-yl)amino)pyridin-2-yl)acetamide], in that order: 10.54, 9.10, 5.52 and 3845 fold.
For the molecule `COCc1cc(Nc2cc(NC(C)=O)ncc2-c2ccc(C(C)(C)O)cn2)cc(S(C)(=O)=O)c1` [Example H16, N-(5-(2-hydroxypropan-2-yl)-4′-((3-(methoxymethyl)-5-(methylsulfonyl)phenyl)amino)-[2,3′-bipyridin]-6′-yl)acetamide], the pIC50 in assay [1] is 10.55; in assay [2], 8.12; in the assay on pSTAT5/GM-CSF, less than 5.00. Further, the “Selectivity fold (TYK2/JAK2)” value in assay [2] is more than 1331 fold.
As to `CC(=O)Nc1cc(Nc2cc(C)cc(S(C)(=O)=O)n2)c(-c2ccc3c(n2)OCCO3)cn1` [Example Q3, N-(5-(2,3-dihydro-[1,4]dioxino[2,3-b]pyridin-6-yl)-4-((4-methyl-6-(methylsulfonyl)pyridin-2-yl)amino)pyridin-2-yl)acetamide], the pIC50 is 10.64 in assay [1], 8.94 in assay [2] and less than 5.00 in the assay on pSTAT5/GM-CSF. Besides, the “Selectivity fold (TYK2/JAK2)” value with pSTAT5/GM-CSF is more than 8771 fold.
For the molecule `CC(=O)Nc1cc(Nc2ccc(C)c(S(C)(=O)=O)n2)c(-c2ccn(C)n2)cn1` [Example J51, N-(5-(1-methyl-1H-pyrazol-3-yl)-4-((5-methyl-6-(methylsulfonyl)pyridin-2-yl)amino)pyridin-2-yl)acetamide], the pIC50 in assay [1] was 10.37; in assay [2], 8.80; in the assay with pSTAT5/GM-CSF it was less than 5.00. Moreover, the “Selectivity fold (TYK2/JAK2)” value with pSTAT5/GM-CSF is given as more than 6329 fold.
On to `COC1CC(Oc2cc(Nc3cc(NC(C)=O)ncc3-c3ccc(C(C)(C)O)cn3)nc(S(C)(=O)=O)c2)C1` (stereo not shown) [Example H29, N-(5-(2-hydroxypropan-2-yl)-4′-((4-(3-methoxycyclobutoxy)-6-(methylsulfonyl)pyridin-2-yl)amino)-[2,3′-bipyridin]-6′-yl)acetamide], for which the results for the pIC50 (in assay [1]; in assay [2]; in the assay with pSTAT5/GM-CSF) were 10.66, 8.75 and 5.07, respectively. The “Selectivity fold (TYK2/JAK2)” value in assay [2] worked out at 4797 fold.
On to `CO[C@H]1C[C@@H](c2cc(Nc3cc(NC(C)=O)ncc3-c3ccc4c(n3)OCC(C)(C)O4)nc(S(C)(=O)=O)c2)C1` [Example Q53, N-(5-(2,2-dimethyl-2,3-dihydro-[1,4]dioxino[2,3-b]pyridin-6-yl)-4-((4-((cis)-3-methoxycyclobutyl)-6-(methylsulfonyl)pyridin-2-yl)amino)pyridin-2-yl)acetamide], for which the pIC50 in assay [1] was 10.33; in assay [2] it was 9.24; in the assay with pSTAT5/GM-CSF, less than 5.00. Also, the “Selectivity fold (TYK2/JAK2)” value with pSTAT5/GM-CSF is more than 17211 fold.
With `COCCOc1ccc(-c2cnc(NC(C)=O)cc2Nc2cccc(S(C)(=O)=O)n2)nc1` [Example D1, N-(5-(2-methoxyethoxy)-4′-((6-(methylsulfonyl)pyridin-2-yl)amino)-[2,3′-bipyridin]-6′-yl)acetamide], the pIC50 in assay [1] is 10.33; in assay [2], 9.60; in the assay with pSTAT5/GM-CSF it was less than 5.00. Besides, in assay [2], the “Selectivity fold (TYK2/JAK2)” value was more than 39840 fold.
For the molecule `COc1ccc(Nc2cc(NC(C)=O)ncc2-c2ccn(C)n2)nc1S(C)(=O)=O` [Example J50, N-(4-((5-methoxy-6-(methylsulfonyl)pyridin-2-yl)amino)-5-(1-methyl-1H-pyrazol-3-yl)pyridin-2-yl)acetamide], the pIC50 in assay [1] was 10.31; in assay [2] it was 7.56; in the assay on pSTAT5/GM-CSF, less than 5.00. The “Selectivity fold (TYK2/JAK2)” value with pSTAT5/GM-CSF is on record as more than 361 fold.
For the molecule `COc1cc(Nc2cc(NC(C)=O)ncc2-c2ccn(C)n2)cc(S(C)(=O)=O)c1` [Example J9, N-(4-((3-methoxy-5-(methylsulfonyl)phenyl)amino)-5-(1-methyl-1H-pyrazol-3-yl)pyridin-2-yl)acetamide], the pIC50 in assay [1] is 10.08; in assay [2], 8.18; in the assay with pSTAT5/GM-CSF, less than 5.00. Besides, the “Selectivity fold (TYK2/JAK2)” value with pSTAT5/GM-CSF is reported as more than 1529 fold.
For `CC(=O)Nc1cc(Nc2cc(OC(F)(F)F)cc(S(C)(=O)=O)c2)c(-c2ccn(C)n2)cn1` [Example J10, N-(5-(1-methyl-1H-pyrazol-3-yl)-4-((3-(methylsulfonyl)-5-(trifluoromethoxy)phe-nyl)amino)pyridin-2-yl)acetamide], in that order: 10.30, 8.20, less than 5.00 and more than 1577 fold.
Turning to `CC(=O)Nc1cc(Nc2cccc(S(N)(=O)=O)n2)c(-c2ccn(C)n2)cn1` [Example J4, N-(5-(1-methyl-1H-pyrazol-3-yl)-4-((6-sulfamoylpyridin-2-yl)amino)pyridin-2-yl)acetamide], the pIC50 in assay [1] is 10.55; in assay [2] it was 8.31; with pSTAT5/GM-CSF it was less than 5.00. In the assay on pSTAT5/GM-CSF, the “Selectivity fold (TYK2/JAK2)” value was more than 2024 fold.
For the molecule `COCCOc1cc(Nc2cc(NC(C)=O)ncc2-c2ccc(COC)cn2)nc(S(C)(=O)=O)c1` [Example E5, N-(4′-((4-(2-methoxyethoxy)-6-(methylsulfonyl)pyridin-2-yl)amino)-5-(methoxymethyl)-[2,3′-bipyridin]-6′-yl)acetamide], the pIC50 in assay [1] was 10.66; in assay [2], 9.30; with pSTAT5/GM-CSF it was less than 5.00. Further, the “Selectivity fold (TYK2/JAK2)” value in assay [2] is reported as more than 19960 fold.
For `CC(=O)Nc1cc(Nc2cc(OC3CCC3)cc(S(C)(=O)=O)n2)c(-c2ccc(C(C)(C)O)cn2)cn1` [Example H31, N-(4′-((4-cyclobutoxy-6-(methylsulfonyl)pyridin-2-yl)amino)-5-(2-hydroxypropan-2-yl)-[2,3′-bipyridin]-6′-yl)acetamide], in that order: 10.64, 9.03, less than 5.00 and more than 10695 fold.
On to `COCc1ccc(-c2cnc(NC(C)=O)cc2Nc2cc(C)cc(S(C)(=O)=O)n2)nc1` [Example E2, N-(5-(methoxymethyl)-4′-((4-methyl-6-(methylsulfonyl)pyridin-2-yl)amino)-[2,3′-bipyridin]-6′-yl)acetamide], for which the pIC50 in assay [1] was 10.77; in assay [2], 9.49; in the assay on pSTAT5/GM-CSF it was 5.24. Besides, the “Selectivity fold (TYK2/JAK2)” value in assay [2] is recorded as 17867 fold.
